Consider 1 compound from paper PMC8760490, “Discovery of novel furanylbenzamide inhibitors that target oncogenic tyrosine phosphatase SHP2 in leukemia cells” (The Journal of Biological Chemistry, 2021).

The target of one test is T1, SHP2-E76K (Homo sapiens, UniProt Q06124, E76K).
T1 construct: Recombinant human full-length SHP2 (1–594) WT and E76K mutants; made in house
T1 sequence (Q06124 1-593 E76K): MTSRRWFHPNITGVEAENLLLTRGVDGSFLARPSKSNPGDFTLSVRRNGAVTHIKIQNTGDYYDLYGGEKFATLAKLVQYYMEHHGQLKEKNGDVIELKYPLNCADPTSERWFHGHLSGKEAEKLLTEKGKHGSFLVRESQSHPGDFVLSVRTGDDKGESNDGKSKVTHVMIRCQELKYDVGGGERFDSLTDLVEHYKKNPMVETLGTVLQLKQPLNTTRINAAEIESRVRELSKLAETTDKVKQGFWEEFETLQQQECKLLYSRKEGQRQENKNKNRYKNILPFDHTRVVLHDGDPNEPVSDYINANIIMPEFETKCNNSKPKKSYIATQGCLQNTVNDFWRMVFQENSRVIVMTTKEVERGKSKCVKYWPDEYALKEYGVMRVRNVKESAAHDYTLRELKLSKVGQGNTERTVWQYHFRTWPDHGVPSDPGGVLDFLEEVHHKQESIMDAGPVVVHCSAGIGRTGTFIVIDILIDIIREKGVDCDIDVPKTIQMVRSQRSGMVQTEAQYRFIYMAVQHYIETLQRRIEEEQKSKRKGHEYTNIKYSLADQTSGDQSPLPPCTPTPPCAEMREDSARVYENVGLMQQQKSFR
Kind of test: Michaelis–Menten kinetics and mode of inhibition. Format: biochemical. The text has this:
We previously reported furanylsalicylic acids as potent and selective inhibitors of the Yersinia tyrosine phosphatase YopH ([37], [38]). […] Thus, we tested whether replacement of the neutral 2-hydroxybenzamide moiety with the negatively charged salicylate would be beneficial for the potency of this scaffold against SHP2. […] To corroborate this postulate, we subjected SBI-4668 to Michaelis–Menten kinetic studies with SHP2-E76K to determine its mode of inhibition (Fig. 3, A and B). Using nonlinear regression, initial rates at various inhibitor and substrate concentrations were fitted to the Michaelis–Menten equations for competitive, noncompetitive, uncompetitive, and mixed inhibitions. Fitting models were then compared using Akaike's Information Criterion (AIC), and inhibition mode probabilities were calculated from the differences between the corresponding second-order corrected AIC scores as previously described ([38], [39]).
SBI-4668 was tested with SHP2-E76K using a similar assay format as described previously. SBI-4668 or vehicle (DMSO) was spotted in triplicate into a black Greiner FLUOTRAC 200 384-well microplate (catalog no.: #781076; Greiner) using an Echo 555 Liquid Handler (Labcyte, Inc). […] Fluorescence intensity was measured in kinetic mode as described previously. The initial rates were determined from the linear progression curves of each SHP2-E76K reaction. […]

Test [1] relates to BT-549 TNBC cells. Put plainly: TNBC cell viability (CellTiter-Glo), BT-549. Format: cell-based. The settings on record: Homo sapiens, BT-549; 72 h per text; 5 days per legend and method. The procedure:
(§1) Inhibition of SHP2 has been reported to inhibit the growth of cancer cells including Kasumi-1 acute myeloid leukemia (AML) and KYSE-520 esophageal cancer cells ([30]). […] Thus, we treated two TNBC cell lines, BT-549 and MDA-MB-468, with SBI-4668 or the SHP2 allosteric inhibitor SHP099 at various concentrations and determined cell viability after 72 h, compared with the vehicle control (Fig. 4C). […] Next, we performed an 11-day colony formation assay with TNBC cells treated with SBI-4668 or SHP099 at 5, 10, or 20 μM (Fig. 4D).
Triple-negative breast cancer cell viability was assessed using the ATP-depletion assay CellTiter-Glo. Briefly, 2500 cells in 25 μl media (RPMI + 10% FBS + 1× penicillin–streptomycin [Omega Scientific]) were seeded per well of a 384-well tissue culture–treated plate (Greiner). About 25 nl of 1000× test compound were added using a Labcyte Echo acoustic dispenser, and the cells were incubated for 5 days before addition of 10 μl of CellTiter-Glo reagent as described by the manufacturer. Luminescence was detected on a BioTek Synergy 2 microplate reader, and the values normalized to those of vehicle (DMSO)-treated controls before being plotted using GraphPad Prism.
On the technique in general: In ATP-based viability assays light output follows the ATP content of the culture.

Test [2] deals with BT-549 TNBC cells. Kind of test: 11-day colony formation assay, BT-549. Particulars: 5, 10 or 20 μM, 11 days. In kind it is cell-based. The procedure:
as §1
MDA-MB-468 and […] triple-negative breast cancer cells were maintained in Dulbecco's modified Eagle's medium + 10% FBS supplemented with 1× penicillin–streptomycin/L-glutamine (Omega Scientific). About 1500 cells (in 300 μl) were seeded per well of a standard 24-well tissue culture plate (Falcon) and allowed to adhere for 24 h, before the addition of compound(s) as described. After a further 96 h, media were replaced with fresh media containing the same test compounds and concentrations. After 11 days, media were removed, and cells stained with 0.5% crystal violet (in 20% methanol; Sigma) for 20 min with agitation at 80 rpm. Stain was removed, and plates with stained cells were washed by being submerged in excess deionized water and allowed to air dry overnight before imaging.

By Ki is commonly meant a measure of affinity in units of concentration, obtained from inhibition or displacement. By IC50 is commonly meant the midpoint of a concentration-inhibition curve.

Turning to `O=C(Nc1ccccc1)c1cc(-c2ccc(/C=C3\Sc4ccccc4C3=O)o2)ccc1O` [SBI-4668, (Z)-2-Hydroxy-5-(5-((3-oxobenzo[b]thiophen-2(3H)-ylidene)methyl)furan-2-yl)-N-phenylbenzamide], the mode of inhibition entry on SHP2-E76K (AIC model comparison) is reported as “either a noncompetitive or a mixed inhibition mechanism”. Moreover, at SHP2-E76K (DiFMUP, read-out: inhibition constant (Ki) for noncompetitive inhibition), the Ki came to 1.8 µM. The IC50 in the test with BT-549 TNBC cells [1] came to 5.4 µM. Further, the “colony formation, BT-549” value in the test on BT-549 TNBC cells [2] is reported as “undetectable”.
